Assays:
[1] = Displacement of [3H]ifenprodil from recombinant human GluN1A/GluN2B expressed in mouse L-M(TK-) cell membranes after 120 mins by microbeta scintillation counting method; design: species or system Membrane
[2] = biological target: T1, Sigma intracellular receptor 2 (Rattus norvegicus, UniProt Q5U3Y7); assay: Displacement of [3H]-DTG from sigma 2 receptor in rat liver membrane measured after 120 mins by microbeta counting analysis; assay type: cell membranes
T1 sequence (Q5U3Y7 whole entry): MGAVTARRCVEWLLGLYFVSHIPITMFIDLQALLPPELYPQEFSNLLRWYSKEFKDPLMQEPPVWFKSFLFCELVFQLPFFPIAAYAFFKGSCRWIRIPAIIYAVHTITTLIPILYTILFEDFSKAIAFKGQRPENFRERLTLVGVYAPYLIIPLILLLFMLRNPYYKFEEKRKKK

[3] = system: Oocyte; assay: Antagonist activity at GluN1a/GluN2B NMDA receptor (unknown origin) expressed in Xenopus oocytes assessed as inhibition of glycine and (S)-glutamate-induced ion channel activation at 1 uM at -70 mV holding potential by two-electrode voltage clamp method relative to control; assay type: cell-based; settings: Homo sapiens
[4] = biological target: Sigma non-opioid intracellular receptor 1 (Cavia porcellus, UniProt Q60492); assay: Displacement of [3H]-(+)-pentazocine from sigma1 receptor in guinea pig brain cortex membranes measured after 120 mins by scintillation counting method; assay type: cell membranes, Cerebral cortex, Membrane
Sequence of Sigma non-opioid intracellular receptor 1 (Q60492 whole entry): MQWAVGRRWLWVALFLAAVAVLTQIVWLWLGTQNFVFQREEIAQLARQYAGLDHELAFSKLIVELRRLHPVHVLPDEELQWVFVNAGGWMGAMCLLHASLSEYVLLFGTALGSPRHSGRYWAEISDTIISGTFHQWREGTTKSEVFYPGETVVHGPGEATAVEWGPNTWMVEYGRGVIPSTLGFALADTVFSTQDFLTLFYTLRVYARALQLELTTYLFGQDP

Compound	Ki [1]	Ki [2]	inhibition [3]	Ki [4]
OC(CN1CCC(Cc2ccc(F)cc2)CC1)c1ccc(Cl)cc1 (stereo not drawn) [ELIPRODIL]	13 nM	–	–	–
O[C@H](CN1[C@@H]2CC[C@H]1C/C(=C\c1ccc(F)cc1)C2)c1ccccc1	2.9 nM	11 nM	1.7%	0.45 nM
O[C@H](CN1[C@@H]2CC[C@H]1C/C(=C/c1ccc(F)cc1)C2)c1ccccc1	9.3 nM	27 nM	1.5%	6.6 nM
O[C@@H](CN1[C@@H]2CC[C@H]1C/C(=C/c1ccc(Cl)cc1)C2)c1ccccc1	13 nM	22 nM	–	18 nM
O[C@@H](CN1[C@@H]2CC[C@H]1C[C@H](Cc1ccccc1)C2)c1ccccc1	21 nM	14 nM	–	7 nM
C[C@H]([C@H](O)c1ccc(O)cc1)N1CCC(Cc2ccccc2)CC1	5.8 nM	–	–	–
O[C@@H](CN1[C@@H]2CC[C@H]1C/C(=C\c1ccccc1)C2)c1ccccc1	1.1 nM	6.6 nM	–	0.3 nM
O[C@H](CN1[C@@H]2CC[C@H]1C/C(=C\c1ccccc1)C2)c1ccccc1	1.8 nM	12 nM	–	0.8 nM
O[C@@H](CN1[C@@H]2CC[C@H]1C[C@H](Cc1ccccc1)C2)c1ccc(F)cc1	5.2 nM	10 nM	–	6.7 nM
O[C@@H](CN1[C@@H]2CC[C@H]1C/C(=C\c1ccc(Cl)cc1)C2)c1ccccc1	4.4 nM	15 nM	–	2.7 nM
O[C@@H](CN1[C@@H]2CC[C@H]1C[C@@H](Cc1ccccc1)C2)c1ccc(F)cc1	1.7 nM	6 nM	–	0.7 nM
O[C@H](CN1[C@@H]2CC[C@H]1C[C@H](Cc1ccc(F)cc1)C2)c1ccccc1	1.9 nM	11 nM	3.1%	2.1 nM
O[C@@H](CN1[C@@H]2CC[C@H]1C[C@H](Cc1ccc(F)cc1)C2)c1ccc(F)cc1	5.9 nM	15 nM	–	25 nM
O[C@@H](CN1[C@@H]2CC[C@H]1C/C(=C/c1ccc(F)cc1)C2)c1ccc(F)cc1	7 nM	21 nM	–	28 nM
O[C@@H](CN1[C@@H]2CC[C@H]1C/C(=C/c1ccccc1)C2)c1ccc(F)cc1	29 nM	47 nM	–	–
O[C@@H](CN1[C@@H]2CC[C@H]1C/C(=C/c1ccc(F)cc1)C2)c1ccccc1	16 nM	–	-0.9%	–
O[C@@H](CN1[C@@H]2CC[C@H]1C/C(=C\c1ccc(F)cc1)C2)c1ccccc1	3 nM	–	1.3%	–
O[C@H](CN1[C@@H]2CC[C@H]1C[C@@H](Cc1ccccc1)C2)c1ccccc1	15 nM	10 nM	–	4.5 nM
O[C@@H](CN1[C@@H]2CC[C@H]1C[C@@H](Cc1ccc(F)cc1)C2)c1ccccc1	0.7 nM	22 nM	8.7%	0.9 nM
O[C@H](CN1[C@@H]2CC[C@H]1C/C(=C/c1ccc(Cl)cc1)C2)c1ccccc1	20 nM	47 nM	–	9 nM
O[C@H](CN1[C@@H]2CC[C@H]1C/C(=C\c1ccc(Cl)cc1)C2)c1ccccc1	4.4 nM	30 nM	–	1.9 nM
O[C@@H](CN1[C@@H]2CC[C@H]1C/C(=C\c1ccccc1)C2)c1ccc(F)cc1	1.4 nM	11 nM	–	–
O[C@@H](CN1[C@@H]2CC[C@H]1C/C(=C/c1ccccc1)C2)c1ccccc1	34 nM	101 nM	–	6 nM
O[C@H](CN1[C@@H]2CC[C@H]1C[C@H](Cc1ccccc1)C2)c1ccccc1 (mixture of isomers)	2.4 nM	11 nM	–	1.9 nM
O[C@@H](CN1[C@@H]2CC[C@H]1C[C@@H](Cc1ccc(F)cc1)C2)c1ccc(F)cc1	0.8 nM	5.9 nM	–	1.2 nM
O[C@@H](CN1[C@@H]2CC[C@H]1C/C(=C\c1ccc(F)cc1)C2)c1ccc(F)cc1	1 nM	15 nM	–	0.9 nM
O[C@H](CN1[C@@H]2CC[C@H]1C[C@@H](Cc1ccc(F)cc1)C2)c1ccccc1	17 nM	19 nM	2.3%	2.6 nM
O[C@@H](CN1[C@@H]2CC[C@H]1C[C@@H](Cc1ccccc1)C2)c1ccccc1	2.1 nM	9 nM	–	1.3 nM
O[C@@H](CN1[C@@H]2CC[C@H]1C[C@H](Cc1ccc(F)cc1)C2)c1ccccc1	17 nM	23 nM	5.4%	7 nM
O[C@H](CN1[C@@H]2CC[C@H]1C/C(=C/c1ccccc1)C2)c1ccccc1	21 nM	27 nM	–	11 nM
